From ChEMBL document CHEMBL1909046, “DrugMatrix in vitro pharmacology data”

Experiments:
[1] = DRUGMATRIX: Calcium Channel Type L, Benzothiazepine radioligand binding (ligand: [3H] Diltiazem); format: cell membranes, Rattus norvegicus, Wistar, Brain, Membrane; details: Not Active = under 50% inhibition at 10 µM
[2] = biological target: Substance-P receptor (Homo sapiens, UniProt P25103); format: cell membranes, CHO, Membrane; details: cho; further: in other assays of this panel Not Active means under 50% inhibition at 10 µM
Substance-P receptor, sequence (P25103 whole entry): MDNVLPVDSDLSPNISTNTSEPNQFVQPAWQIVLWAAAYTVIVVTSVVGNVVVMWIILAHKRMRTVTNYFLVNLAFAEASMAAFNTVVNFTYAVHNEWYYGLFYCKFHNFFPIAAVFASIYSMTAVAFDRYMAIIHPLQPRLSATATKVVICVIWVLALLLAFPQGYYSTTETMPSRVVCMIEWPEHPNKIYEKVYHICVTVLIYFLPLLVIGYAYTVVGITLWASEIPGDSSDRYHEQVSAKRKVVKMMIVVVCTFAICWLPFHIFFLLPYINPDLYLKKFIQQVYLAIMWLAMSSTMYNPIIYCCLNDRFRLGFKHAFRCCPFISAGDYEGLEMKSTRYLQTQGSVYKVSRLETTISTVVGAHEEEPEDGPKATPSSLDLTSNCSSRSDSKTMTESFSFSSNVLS

[3] = biological target: D(3) dopamine receptor (Homo sapiens, UniProt P35462); assay: DRUGMATRIX: Dopamine D3 radioligand binding (ligand: [3H] Spiperone); format: cell membranes, CHO, Membrane; details: cho
D(3) dopamine receptor, sequence (P35462 whole entry): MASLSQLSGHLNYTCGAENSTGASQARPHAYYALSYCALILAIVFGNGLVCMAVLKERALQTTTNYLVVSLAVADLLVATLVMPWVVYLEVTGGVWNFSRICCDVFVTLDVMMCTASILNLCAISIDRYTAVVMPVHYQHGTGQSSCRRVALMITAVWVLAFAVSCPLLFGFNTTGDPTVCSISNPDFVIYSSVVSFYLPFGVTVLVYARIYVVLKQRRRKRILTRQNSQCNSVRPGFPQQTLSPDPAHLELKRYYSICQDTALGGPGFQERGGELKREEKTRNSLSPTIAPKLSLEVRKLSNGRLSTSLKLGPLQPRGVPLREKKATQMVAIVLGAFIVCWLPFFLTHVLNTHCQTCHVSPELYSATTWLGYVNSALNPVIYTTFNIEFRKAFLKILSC

[4] = DRUGMATRIX: Imidazoline I2, Central radioligand binding (ligand: [3H] Idazoxan); format: cell membranes, Rattus norvegicus, Wistar, Cerebral cortex, Membrane; details: Not Active = under 50% inhibition at 10 µM
[5] = biological target: Melanocortin receptor 5 (Homo sapiens, UniProt P33032); format: cell membranes, HEK293, Membrane; details: hek293; further: in other assays of this panel Not Active means under 50% inhibition at 10 µM
Melanocortin receptor 5, sequence (P33032 whole entry): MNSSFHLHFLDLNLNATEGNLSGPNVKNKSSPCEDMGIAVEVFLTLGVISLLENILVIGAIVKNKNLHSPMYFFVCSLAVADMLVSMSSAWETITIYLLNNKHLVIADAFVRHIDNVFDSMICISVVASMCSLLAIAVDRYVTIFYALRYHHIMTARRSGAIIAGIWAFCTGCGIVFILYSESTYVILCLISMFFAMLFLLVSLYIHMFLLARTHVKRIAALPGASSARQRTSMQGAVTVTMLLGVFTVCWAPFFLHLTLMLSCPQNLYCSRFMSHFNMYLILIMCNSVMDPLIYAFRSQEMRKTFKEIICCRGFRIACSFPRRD

[6] = biological target: Nitric oxide synthase 1 (Rattus norvegicus, UniProt P29476); format: tissue-based, Cerebellum; further: in other assays of this panel Not Active means under 50% inhibition at 10 µM
Nitric oxide synthase 1, sequence (P29476 whole entry): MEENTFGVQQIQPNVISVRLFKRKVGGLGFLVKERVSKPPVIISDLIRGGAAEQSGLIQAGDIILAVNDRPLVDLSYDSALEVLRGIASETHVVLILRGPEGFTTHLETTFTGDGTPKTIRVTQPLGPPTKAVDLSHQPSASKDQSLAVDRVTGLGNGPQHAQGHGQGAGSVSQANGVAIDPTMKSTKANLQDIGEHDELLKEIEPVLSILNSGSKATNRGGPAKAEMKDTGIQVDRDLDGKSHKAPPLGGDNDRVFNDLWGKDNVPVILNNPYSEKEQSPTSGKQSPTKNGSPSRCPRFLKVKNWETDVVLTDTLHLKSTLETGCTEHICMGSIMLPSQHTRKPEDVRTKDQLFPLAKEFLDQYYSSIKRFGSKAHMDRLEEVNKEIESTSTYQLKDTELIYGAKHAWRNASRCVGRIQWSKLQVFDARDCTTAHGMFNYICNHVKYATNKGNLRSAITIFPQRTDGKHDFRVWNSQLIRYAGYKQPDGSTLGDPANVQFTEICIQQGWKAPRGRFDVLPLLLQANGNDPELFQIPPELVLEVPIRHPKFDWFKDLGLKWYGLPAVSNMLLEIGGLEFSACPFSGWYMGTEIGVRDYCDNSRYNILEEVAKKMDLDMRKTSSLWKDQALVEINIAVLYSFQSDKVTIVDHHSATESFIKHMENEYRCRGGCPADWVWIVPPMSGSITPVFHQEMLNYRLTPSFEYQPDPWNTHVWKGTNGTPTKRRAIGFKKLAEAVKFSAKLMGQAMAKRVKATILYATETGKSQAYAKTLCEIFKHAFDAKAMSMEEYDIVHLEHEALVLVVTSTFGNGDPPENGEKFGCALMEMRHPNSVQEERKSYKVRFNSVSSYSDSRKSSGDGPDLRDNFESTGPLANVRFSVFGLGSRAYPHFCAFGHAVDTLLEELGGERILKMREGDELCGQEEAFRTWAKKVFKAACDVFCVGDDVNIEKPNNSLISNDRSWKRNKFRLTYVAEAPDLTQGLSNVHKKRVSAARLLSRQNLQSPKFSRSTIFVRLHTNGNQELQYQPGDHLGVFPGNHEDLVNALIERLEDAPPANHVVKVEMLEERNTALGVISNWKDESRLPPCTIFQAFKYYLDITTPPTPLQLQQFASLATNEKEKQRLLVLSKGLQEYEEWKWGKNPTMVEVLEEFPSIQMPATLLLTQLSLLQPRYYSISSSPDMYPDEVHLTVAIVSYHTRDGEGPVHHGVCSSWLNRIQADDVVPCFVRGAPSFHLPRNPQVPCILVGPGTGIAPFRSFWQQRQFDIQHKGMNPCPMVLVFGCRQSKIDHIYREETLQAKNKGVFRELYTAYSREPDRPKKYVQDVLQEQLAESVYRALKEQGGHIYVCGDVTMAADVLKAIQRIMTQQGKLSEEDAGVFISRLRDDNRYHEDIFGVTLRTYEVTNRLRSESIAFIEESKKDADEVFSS

[7] = biological target: T1, Nitric oxide synthase, inducible (Mus musculus, UniProt P29477); set-up: species or system Escherichia coli;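 further: inhibition of iNOS enzyme activity measured with L-arginine as substrate; in other assays of this panel Not Active means under 50% inhibition at 10 µM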
T1 sequence (P29477 whole entry): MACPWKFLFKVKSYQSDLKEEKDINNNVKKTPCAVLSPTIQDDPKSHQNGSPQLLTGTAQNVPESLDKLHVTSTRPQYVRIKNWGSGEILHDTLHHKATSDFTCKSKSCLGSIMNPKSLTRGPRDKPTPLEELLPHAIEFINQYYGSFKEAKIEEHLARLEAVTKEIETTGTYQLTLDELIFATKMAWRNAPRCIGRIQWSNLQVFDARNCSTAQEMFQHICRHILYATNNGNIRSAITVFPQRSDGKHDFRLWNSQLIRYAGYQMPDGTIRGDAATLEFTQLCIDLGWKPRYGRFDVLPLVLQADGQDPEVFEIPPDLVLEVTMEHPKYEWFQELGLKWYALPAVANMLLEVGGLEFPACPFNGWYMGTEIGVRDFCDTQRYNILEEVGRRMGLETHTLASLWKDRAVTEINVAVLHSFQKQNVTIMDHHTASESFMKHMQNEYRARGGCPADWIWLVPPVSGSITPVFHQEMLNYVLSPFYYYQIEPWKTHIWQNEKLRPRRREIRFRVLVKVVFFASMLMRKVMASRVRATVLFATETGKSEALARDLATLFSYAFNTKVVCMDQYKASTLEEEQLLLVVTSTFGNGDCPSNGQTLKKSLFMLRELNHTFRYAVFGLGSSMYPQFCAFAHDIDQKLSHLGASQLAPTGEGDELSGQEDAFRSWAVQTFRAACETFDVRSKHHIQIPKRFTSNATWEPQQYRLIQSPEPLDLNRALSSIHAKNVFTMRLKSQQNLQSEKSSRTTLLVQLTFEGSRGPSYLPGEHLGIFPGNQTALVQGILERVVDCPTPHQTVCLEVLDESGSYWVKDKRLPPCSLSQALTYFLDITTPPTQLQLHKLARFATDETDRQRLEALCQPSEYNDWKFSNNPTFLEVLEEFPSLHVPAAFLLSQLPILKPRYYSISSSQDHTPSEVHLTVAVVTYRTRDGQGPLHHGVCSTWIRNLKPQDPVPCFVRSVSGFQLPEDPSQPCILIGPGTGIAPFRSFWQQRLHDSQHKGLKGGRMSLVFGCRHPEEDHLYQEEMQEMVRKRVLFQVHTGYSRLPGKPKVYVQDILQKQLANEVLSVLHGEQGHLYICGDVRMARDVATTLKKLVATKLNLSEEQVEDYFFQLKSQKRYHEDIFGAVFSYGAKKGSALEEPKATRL

[8] = biological target: T2, Neutrophil elastase (Homo sapiens, UniProt P08246); format: tissue-based
T2 sequence (P08246 whole entry): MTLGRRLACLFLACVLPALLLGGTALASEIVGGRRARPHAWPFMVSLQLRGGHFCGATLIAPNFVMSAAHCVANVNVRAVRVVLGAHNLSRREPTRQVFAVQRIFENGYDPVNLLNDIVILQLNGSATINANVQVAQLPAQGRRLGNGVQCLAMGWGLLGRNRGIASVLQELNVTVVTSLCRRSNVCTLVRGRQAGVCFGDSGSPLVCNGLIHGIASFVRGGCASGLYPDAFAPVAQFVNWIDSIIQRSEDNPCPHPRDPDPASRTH

Compound | IC50 [1] | Ki [1] | IC50 [2] | IC50 [3] | IC50 [4] | Ki [4] | IC50 [5] | IC50 [6] | IC50 [7] | IC50 [8] | Ki [7] | IC50 ([1]; read-out: IC50) [nM] | Ki ([1]; read-out: Ki) [nM] | Ki [2] | Ki [3] | Ki [5] | Ki [6] | Ki [8]
COS(C)(=O)=O [METHANESULFONIC ACID METHYL ESTER] | Not Active | Not Active | Not Active | Not Active | Not Active | Not Active | Not Active | Not Active | Not Active | Not Active |  |  |  |  |  |  |  | 
COC(=O)c1ccc(O)cc1 [METHYLPARABEN] | Not Active | Not Active | Not Active | Not Active | Not Active | Not Active | Not Active | Not Active | Not Active | Not Active |  |  |  |  |  |  |  | 
C[C@](N)(Cc1ccc(O)cc1)C(=O)O [METYROSINE] | Not Active | Not Active | Not Active | Not Active | Not Active | Not Active | Not Active | Not Active | Not Active | Not Active |  |  |  |  |  |  |  | 
Clc1ccc(C(c2ccccc2Cl)C(Cl)Cl)cc1 (stereo unspecified) [MITOTANE] | Not Active | Not Active | Not Active | Not Active | Not Active | Not Active | Not Active | Not Active | Not Active | Not Active |  |  |  |  |  |  |  | 
O=C1c2c(O)ccc(O)c2C(=O)c2c(NCCNCCO)ccc(NCCNCCO)c21 [MITOXANTRONE] | Not Active | Not Active | Not Active | Not Active | Not Active | Not Active | Not Active | Not Active |  | Not Active | Not Active |  |  |  |  |  |  | 
COc1c(C)c2c(c(O)c1C/C=C(\C)CCC(=O)OCCN1CCOCC1)C(=O)OC2 [MYCOPHENOLATE MOFETIL] | Not Active | Not Active | Not Active | Not Active | Not Active | Not Active | Not Active | Not Active | Not Active | Not Active |  |  |  |  |  |  |  | 
COC(=O)C1=C(C)NC(C)=C(C(=O)OC)C1c1ccccc1[N+](=O)[O-] [NIFEDIPINE] |  |  | Not Active | Not Active | Not Active | Not Active | Not Active | Not Active | Not Active | Not Active |  | 8.67 | 7.71 |  |  |  |  | 
NNc1ccccc1 [PHENYLHYDRAZINE] | Not Active | Not Active | Not Active | Not Active | Not Active | Not Active | Not Active | Not Active | Not Active | Not Active |  |  |  |  |  |  |  | 
CC(=O)[C@H]1CC[C@H]2[C@@H]3CCC4=CC(=O)CC[C@]4(C)[C@H]3CC[C@]12C [PROGESTERONE] | Not Active | Not Active | Not Active | Not Active | Not Active | Not Active | Not Active | Not Active | Not Active | Not Active |  |  |  |  |  |  |  | 
NC(=O)c1ncn([C@@H]2O[C@H](CO)[C@@H](O)[C@H]2O)n1 [RIBAVIRIN] | Not Active | Not Active | Not Active | Not Active | Not Active | Not Active | Not Active | Not Active | Not Active | Not Active |  |  |  |  |  |  |  | 
O=[N+]([O-])c1cc([As](=O)(O)O)ccc1O [ROXARSONE] | Not Active | Not Active | Not Active | Not Active | Not Active | Not Active | Not Active | Not Active | Not Active | Not Active | Not Active |  |  | Not Active | Not Active | Not Active | Not Active | Not Active
CC[C@H]1OC(=O)[C@H](C)[C@@H](O[C@H]2C[C@@](C)(OC)[C@@H](O)[C@H](C)O2)[C@H](C)[C@@H](O[C@@H]2O[C@H](C)C[C@H](N(C)C)[C@H]2O)[C@](C)(O)C[C@@H](C)/C(=N\OCOCCOC)[C@H](C)[C@@H](O)[C@]1(C)O [ROXITHROMYCIN] | Not Active | Not Active | Not Active | Not Active | Not Active | Not Active | Not Active | Not Active | Not Active | Not Active |  |  |  |  |  |  |  | 
NC(=O)c1ccccc1O [SALICYLAMIDE] | Not Active | Not Active | Not Active | Not Active | Not Active | Not Active | Not Active | Not Active | Not Active | Not Active |  |  |  |  |  |  |  | 
Cc1ncc([N+](=O)[O-])n1CC(C)O (stereo unspecified) [SECNIDAZOLE] | Not Active | Not Active | Not Active | Not Active | Not Active | Not Active | Not Active | Not Active | Not Active | Not Active |  |  |  |  |  |  |  | 
CN[C@@H]1[C@@H](O)[C@@H](O[C@@H]2[C@@H](O)[C@H](O[C@H]3OC(CN)=CC[C@H]3N)[C@@H](N)C[C@H]2N)OC[C@]1(C)O [SISOMICIN] | Not Active | Not Active | Not Active | Not Active | Not Active | Not Active | Not Active | Not Active | Not Active | Not Active |  |  |  |  |  |  |  | 
CC(=O)S[C@@H]1CC2=CC(=O)CC[C@]2(C)[C@H]2CC[C@@]3(C)[C@@H](CC[C@@]34CCC(=O)O4)[C@H]12 [SPIRONOLACTONE] | Not Active | Not Active | Not Active | Not Active | Not Active | Not Active | Not Active | Not Active | Not Active | Not Active |  |  |  |  |  |  |  | 
